# Laboratory results taken from the OPERA property sets (Mansouri et al. 2018).
# Conditions: 21.0 °C
row,log10 OH rate constant (cm³/molecule/s),Compound
1,-9.44,CC1=CC=C(C(C)C)CC1

# Same assay, conditions: 22.0 °C
row,log10 OH rate constant (cm³/molecule/s),Compound
1,-11,C=C=C

# Same assay, conditions: 24.0 °C
row,Compound,log10 OH rate constant (cm³/molecule/s)
1,c1c[nH]cn1,-10.4

# Same assay, conditions: 25.0 °C
row,log10 OH rate constant (cm³/molecule/s),Compound
1,-11.9,c1ccccc1
2,-10.9,CC(O)CO (stereo not drawn)
3,-9.77,C=C1C=CC(C(C)C)CC1 (stereo not drawn)
4,< -11.1,Cc1ccc2ccccc2c1[N+](=O)[O-]
5,-10.6,CC(C)CC=O
6,-10.7,CCCCOCCO
7,-11.4,COC(C)(C)OC
8,-11.3,CC(C)(C)c1ccccc1
9,-11.1,CCSC
10,-11.3,CC(C)C(=O)C(C)C
11,-10.2,CS(C)=O
12,-9.5,CC1=CCC(C(C)C)C=C1 (stereo not drawn)
13,-10.7,CCC=O
14,-10.7,CCc1cccc(C)c1
15,-9.86,C1=CCCCC=C1
16,-11.4,CCC(C)C
17,-10.8,COCCOCCOC
18,-11,CCCCC(C)CCC (stereo not drawn)
19,-10.8,CC(=O)C=O
20,-11,O=CCO
21,-10.6,O=CCCCC=O
22,-10.3,C=C(C)C
23,-10.7,c1ccc2ccccc2c1

row,log10 OH rate constant (cm³/molecule/s),Compound
1,-10.6,Oc1ccccc1
2,-11.5,CC(C)C1CC1
3,-13.5,CC(F)F
4,-11.3,CC(C)CC(C)C
5,-10,C1=CC=CCC=C1
6,-11.1,C=C
7,-10.3,C=CC=CC=C
8,-10.7,CCOCCCO
9,-10.3,C=CCC=C
10,-11.1,OCCO
11,-10.8,COc1ccccc1
12,-11,c1ccsc1
13,-11,c1cocn1
14,-10.8,CCCCCCCCCCCCC
15,-10.4,C=CCCCCC
16,-10.8,CCSCC
17,-10.9,CCCCC(C)O (stereo not drawn)
18,-10.8,CCOCOCC
19,< -15.2,FC(F)(F)Cl
20,-11.1,C1CCCCC1
21,-11.2,CC(C)C(C)C
22,-10.9,CC(=O)CC(C)C
23,-10.4,c1ccc2occc2c1

row,log10 OH rate constant (cm³/molecule/s),Compound
1,-10.6,CC(C)(C)C=O
2,-11.1,CCCCCCC
3,-10.3,CC(C)CS
4,-10.3,Cc1cccc2ccccc12
5,-10.9,C1CCCCCC1
6,-11,OC1CCCC1
7,-10.5,CC(C)=Cc1ccccc1
8,-11.2,COCC(C)=O
9,-10.7,C1CCSC1
10,-11,C#CCCC
11,-11.2,CCCC(=O)CC
12,-11.9,CCC
13,-10.4,CC(C)S
14,-10.4,c1ccc2c(c1)CCO2
15,-10,CC1=CCCCC1
16,-12.1,CC(C)(C)C
17,-11.7,CCC(=O)CC
18,-10.9,CC(C)C(C)O (stereo not drawn)
19,-10.3,C=C(C)c1ccccc1
20,-10.5,Cc1cccc(C)c1C
21,-12.3,O=CO
22,-11,CCCCOC(=O)CCC
23,-11.6,CCC(C)(C)C

row,log10 OH rate constant (cm³/molecule/s),Compound
1,-10.6,CCOCCOCCOCC
2,-11.6,CCCC
3,-11,CCCCCCCCC
4,-10.3,CCCCS
5,-10.5,C=CC(C)(C)C
6,-14.8,CC(F)(F)F
7,-11.3,C1CC2CCC1C2
8,-10.9,CCCCCCCC(C)=O
9,-11,c1ccc2c(c1)CCC2
10,-10.6,COC(C)CCO (stereo not drawn)
11,-10.7,CCCCCCCCCCCCCC
12,-10.6,CC#CC
13,-11,C1COCOC1
14,-11.5,CC(=O)OC(C)C
15,-10.4,C=CCCCC
16,-10.2,C=C=C(C)C
17,-10.6,CC(C)(N)CO
18,-9.88,C=CC=C(C)C
19,-11.4,CCCCC
20,-10.9,COCCO
21,-10.3,CCS
22,-11.3,C1CCCC1
23,-10.9,CCCCCCCCCC

row,log10 OH rate constant (cm³/molecule/s),Compound
1,-10.9,CCc1ccc(C)cc1
2,-11.2,CCC(C)CC
3,-11.5,CCCC(C)(C)C
4,-11.1,CC1CCCC(C)(C)C1 (stereo not drawn)
5,-11.7,CC(C)C(=O)O
6,-11.9,CCC(=O)O
7,-12.2,Fc1ccccc1
8,-10.9,CCC(O)CC
9,-10.6,CC(C)COCC(C)C
10,-9.67,C=CC(=C)CCC=C(C)C
11,-10.8,C1CCOC1
12,-10.1,C=C1CCC2CC1C2(C)C (stereo not drawn)
13,-11.7,C/C=N/O
14,-11.2,CC(C)c1ccccc1
15,-11.5,CC(=O)CO
16,-9.75,CC1=CCC(C(C)C)=CC1
17,-11,C1COC1
18,-12.3,FC(F)(F)c1ccccc1
19,-11.8,CCOC(C)=O
20,-11.4,CC(C)CC(C)(C)C

row,Compound,log10 OH rate constant (cm³/molecule/s)
1,C=CF,-11.3
2,FC(F)(F)F,< -15.4
3,Cc1ccc(C)cc1,-10.8
4,Clc1ccc(Cl)cc1,-12.5
5,CC(=O)CCC(C)=O,-11.1
6,c1ccc(-c2ccccc2)cc1,-11.1
7,ClC(Cl)=C(Cl)Cl,-12.8
8,C=CC=C,-10.2
9,FC(F)(F)c1ccc(Cl)cc1,-12.6
10,C1CO1,-13.1
11,C=C(C)C(=C)C,-9.91
12,C=CC=O,-10.7
13,CCCS,-10.3
14,c1ccc2c(c1)Cc1ccccc1-2,-10.9
15,Oc1cccc(Cl)c1Cl,-11.8
16,CC(=O)OO[N+](=O)[O-],-13
17,c1ccncc1,-12.4
18,FC(F)(Cl)Cl,< -15.4
19,Clc1ccccc1,-12.1
20,CCF,-12.6
21,CCOCCOC(C)=O,-10.9
22,CC=O,-10.8
23,Cc1cc(C)cc(C)c1,-10.2
24,CCc1ccccc1C,-10.9

row,Compound,log10 OH rate constant (cm³/molecule/s)
1,CC=Cc1ccccc1,-10.2
2,CN(C)c1ccccc1,-9.83
3,O=[N+]([O-])c1ccccc1,-12.9
4,c1ccc2c(c1)CCCC2,-10.5
5,CC(=O)C(F)(F)F,-13.8
6,ClCc1ccccc1,-11.5
7,COP(N)(=S)OC,-9.61
8,CS,-10.5
9,CN(C)C,-10.2
10,Cc1ccc(N)cc1N,-9.72
11,BrCCBr,-12.6
12,O=Cc1ccccc1,-10.9
13,C=Cc1ccccc1,-10.2
14,O=CC=O,-10.9
15,CCCCCC,-11.3
16,CNN,-10.2
17,ClC(Cl)Cl,-13
18,C1COCCO1,-11
19,Oc1ccc(Cl)cc1Cl,-12
20,Cc1cccc([N+](=O)[O-])c1,-12
21,CCC(C)=O,-11.9
22,C1CCC2CCCCC2C1 (stereo not drawn),-10.7
23,Cc1cccc(C)c1,-10.6
24,Clc1ccc(Cl)c2ccccc12,-11.2

row,Compound,log10 OH rate constant (cm³/molecule/s)
1,Nc1ccc(Cl)cc1,-10.4
2,Clc1cccc(Cl)c1,-12.1
3,Nc1ccc(Cc2ccc(N)cc2)cc1,-10.5
4,C1=Cc2cccc3cccc1c23,-9.96
5,O=[N+]([O-])c1cccc2ccccc12,-11.3
6,CC(=O)C(C)(C)C,-11.9
7,C/C=C/C=O,-10.4
8,C=CCO,-10.6
9,Cc1ccccc1O,-10.4
10,COO,-11.3
11,C=C(C)C=O,-10.5
12,CNC,-10.2
13,Cc1ccccc1[N+](=O)[O-],-12.2
14,ClC=C(Cl)Cl,-11.6
15,ClCC1CO1 (stereo not drawn),-12.4
16,OCC(Cl)(Cl)Cl,-12.6
17,OCCCl,-11.9
18,O=[N+]([O-])c1ccccc1O,-12
19,Cc1ccc2ccccc2c1,-10.3
20,Clc1ccc(-c2ccccc2)cc1,-11.4
21,COP(=S)(OC)SC,-10.3
22,FCCF,-13
23,FC(F)Cl,-14.3

# Same assay, conditions: 26.0 °C
row,log10 OH rate constant (cm³/molecule/s),Compound
1,-10.5,C=COC
2,-10.7,CN
